Patent US20250346580A1, “NOVEL PYRIMIDINYL SULFONAMIDE DERIVATIVES” (Hoffmann-La Roche Inc., priority 2023, published 2025)

Molecular target: human GPR17 short isoform (Homo sapiens, UniProt Q13304)
Test: GPR17 cAMP assay (hGPR17 cAMP)
Assay type: cell-based
Conditions: CHO-K1 cells stably expressing human GPR17 short isoform; antagonist mode with EC80 of MDL29,951, forskolin 15 μM, TR-FRET cAMP
Procedure: GPR17 cAMP Assay Protocol:
CHO-K1 cells stably expressing vector containing untagged human GPR17 short isoform (Roche) were cultured at 37° C./5% CO2 in DMEM (Dulbecco's Modified Eagle Medium):F-12 (1:1) supplemented with 10% foetal bovine serum and 400 μg/ml Geneticin.
Changes in intracellular cyclic adenosine monophosphate (cAMP) levels were quantified using the Nano-TRF Detection Assay kit (Roche Diagnostics, Cat. No. 05214386001). This assay allows for direct cAMP quantification in a homogeneous solution. cAMP is detected based on time-resolved fluorescence energy transfer (TR-FRET) and competitive binding of ruthenylated cAMP and endogenous cAMP to an anti-cAMP monoclonal antibody labeled with AlexaFluor-700. The Ruthenium complex serves as the FRET donor and transfers energy to AlexaFluor-700. The FRET signal is inversely proportional to the cAMP concentration.
CHO-GPR17S cells were detached with Accutase and resuspended in assay buffer consisting of Hank's Balanced Salt Solution (HBSS), 10 mM HEPES (4-(2-hydroxyethyl) piperazine-1-ethanesulfonic acid solution) and 0.1% bovine serum albumin (pH 7.4). The cells were seeded in black 384-well plates (Corning) at a density of 10'000 cells/20 μl assay buffer until the addition of compounds.
Test antagonist compounds were serially diluted in dimethyl sulfoxide (DMSO) and spotted in 384-well plates. The compounds were then diluted in HBSS buffer supplemented with an EC80 concentration of MDL29,951 (3-(2-Carboxy-4,6-dichloroindol-3-yl)propionic acid) (GPR17 agonist) plus 3-Isobutyl-1-methylxanthine (IBMX) (0.5 mM final concentration) and added to the cells at room temperature. Forskolin (15 μM final concentration) was added 5 minutes after the test compounds and the cells were incubated at room temperature for 30 minutes. The assay was stopped by adding cAMP detection mix (containing detergents for cell lysis) for 90 minutes at room temperature.
Cellular cAMP was measured using a Paradigm reader (Molecular Devices). The raw data was used to calculate the FRET signal based on the assay's P-factor as per cAMP kit instructions. The data was normalized to the maximal activity of a reference antagonist and dose response curves were fitted to the percent activity of the test compounds using a sigmoidal dose response model (Genedata Screener).

Sequence of human GPR17 short isoform (Q13304 29-367): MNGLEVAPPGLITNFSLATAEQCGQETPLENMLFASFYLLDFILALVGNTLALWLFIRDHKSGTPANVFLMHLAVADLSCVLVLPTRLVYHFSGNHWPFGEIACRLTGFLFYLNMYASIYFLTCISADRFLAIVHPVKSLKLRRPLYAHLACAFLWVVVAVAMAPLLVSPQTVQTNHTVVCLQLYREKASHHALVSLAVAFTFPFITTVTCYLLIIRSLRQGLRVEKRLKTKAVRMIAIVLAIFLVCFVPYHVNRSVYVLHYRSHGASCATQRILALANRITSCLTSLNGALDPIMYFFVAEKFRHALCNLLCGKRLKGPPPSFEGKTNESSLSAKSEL

SMILES	IC50
COc1nc(NS(=O)(=O)c2c[nH]c(-c3nccs3)c2)nc(OC)c1OCC(F)F [Example 4, N-[5-(2,2-difluoroethoxy)-4,6-dimethoxy-pyrimidin-2-yl]-5-thiazol-2-yl-1H-pyrrole-3-sulfonamide]	500 nM
COc1nc(NS(=O)(=O)c2c[nH]c(-c3nccs3)c2)ncc1OCC(F)F [Example 9, N-[5-(2,2-difluoroethoxy)-4-methoxy-pyrimidin-2-yl]-5-thiazol-2-yl-1H-pyrrole-3-sulfonamide]	697 nM
COc1nc(NS(=O)(=O)c2c[nH]c(-c3cscn3)c2)nc(OC)c1CC(F)F [Example 15, N-[5-(2,2-difluoroethyl)-4,6-dimethoxy-pyrimidin-2-yl]-5-thiazol-4-yl-1H-pyrrole-3-sulfonamide]	661 nM
COc1nc(NS(=O)(=O)c2c[nH]c(-c3cscn3)c2)nc(OC)c1OC(F)F [Example 16, N-[5-(difluoromethoxy)-4,6-dimethoxy-pyrimidin-2-yl]-5-thiazol-4-yl-1H-pyrrole-3-sulfonamide]	2270 nM
COc1nc(NS(=O)(=O)c2c[nH]cc2Cc2ccccc2)nc(OC)c1CC(F)F [Example 21, 4-benzyl-N-[5-(2,2-difluoroethyl)-4,6-dimethoxy-pyrimidin-2-yl]-1H-pyrrole-3-sulfonamide]	635 nM
COc1nc(NS(=O)(=O)c2c[nH]cc2Cc2ccccc2)nc(OC)c1OC(F)F [Example 22, 4-benzyl-N-[5-(difluoromethoxy)-4,6-dimethoxy-pyrimidin-2-yl]-1H-pyrrole-3-sulfonamide]	2260 nM
COc1nc(NS(=O)(=O)c2c[nH]c(-c3cscn3)c2)nc(OC)c1OCCF [Example 25, N-[5-(2-fluoroethoxy)-4,6-dimethoxy-pyrimidin-2-yl]-5-thiazol-4-yl-1H-pyrrole-3-sulfonamide]	916 nM
COc1nc(NS(=O)(=O)c2c[nH]c(-c3cscn3)c2)nc(OC)c1OCC(F)F [Example 26, N-[5-(2,2-difluoroethoxy)-4,6-dimethoxy-pyrimidin-2-yl]-5-thiazol-4-yl-1H-pyrrole-3-sulfonamide]	724 nM
COc1nc(NS(=O)(=O)c2c[nH]cc2Cc2ccccc2)nc(OC)c1OCCF [Example 28, 4-benzyl-N-[5-(2-fluoroethoxy)-4,6-dimethoxy-pyrimidin-2-yl]-1H-pyrrole-3-sulfonamide]	1080 nM
[2H]C([2H])(c1cccc(F)c1)c1c[nH]cc1S(=O)(=O)Nc1nc(OC)c(OCC(F)F)c(OC)n1 [Example 29, 4-[dideuterio-(3-fluorophenyl)methyl]-N-[5-(2,2-difluoroethoxy)-4,6-dimethoxy-pyrimidin-2-yl]-1H-pyrrole-3-sulfonamide]	964 nM
COc1nc(NS(=O)(=O)c2c[nH]cc2Cc2ccccc2)nc(OC)c1OCC(F)F [Example 30, 4-benzyl-N-[5-(2,2-difluoroethoxy)-4,6-dimethoxy-pyrimidin-2-yl]-1H-pyrrole-3-sulfonamide]	1860 nM

Now those with a lower IC50, led by results:

IC50	SMILES
478 nM	COc1nc(NS(=O)(=O)c2c[nH]c(-c3ccccc3)c2)nc(OC)c1OC(F)F [Example 2, N-[5-(difluoromethoxy)-4,6-dimethoxy-pyrimidin-2-yl]-5-phenyl-1H-pyrrole-3-sulfonamide]
344 nM	COc1nc(NS(=O)(=O)c2c[nH]c(-c3ccccn3)c2)nc(OC)c1OC(F)F [Example 18, N-[5-(difluoromethoxy)-4,6-dimethoxy-pyrimidin-2-yl]-5-(2-pyridyl)-1H-pyrrole-3-sulfonamide]
331 nM	COc1nc(NS(=O)(=O)c2c[nH]c(-c3ncccc3F)c2)ncc1CC(F)F [Example 24, N-[5-(2,2-difluoroethyl)-4-methoxy-pyrimidin-2-yl]-5-(3-fluoro-2-pyridyl)-1H-pyrrole-3-sulfonamide]
325 nM	COc1nc(NS(=O)(=O)c2c[nH]c(-c3ncccc3F)c2)nc(OC)c1OC(F)F [Example 5, N-[5-(difluoromethoxy)-4,6-dimethoxy-pyrimidin-2-yl]-5-(3-fluoro-2-pyridyl)-1H-pyrrole-3-sulfonamide]
222 nM	COc1nc(NS(=O)(=O)c2c[nH]c(-c3nc(C)cs3)c2)nc(OC)c1OCCF [Example 31, N-[5-(2-fluoroethoxy)-4,6-dimethoxy-pyrimidin-2-yl]-5-(4-methylthiazol-2-yl)-1H-pyrrole-3-sulfonamide]
198 nM	COc1nc(NS(=O)(=O)c2c[nH]c(-c3nc(C)cs3)c2)nc(OC)c1CC(F)F [Example 20, N-[5-(2,2-difluoroethyl)-4,6-dimethoxy-pyrimidin-2-yl]-5-(4-methylthiazol-2-yl)-1H-pyrrole-3-sulfonamide]
182 nM	COc1nc(NS(=O)(=O)c2c[nH]c(-c3ccccn3)c2)nc(OC)c1OCC(F)F [Example 19, N-[5-(2,2-difluoroethoxy)-4,6-dimethoxy-pyrimidin-2-yl]-5-(2-pyridyl)-1H-pyrrole-3-sulfonamide]
169 nM	COc1nc(NS(=O)(=O)c2c[nH]c(-c3ccccc3)c2)nc(OC)c1CC(F)F [Example 12, N-[5-(2,2-difluoroethyl)-4,6-dimethoxy-pyrimidin-2-yl]-5-phenyl-1H-pyrrole-3-sulfonamide]
142 nM	COc1nc(NS(=O)(=O)c2c[nH]c(-c3ccsn3)c2)nc(OC)c1OCC(F)F [Example 11, N-[5-(2,2-difluoroethoxy)-4,6-dimethoxy-pyrimidin-2-yl]-5-isothiazol-3-yl-1H-pyrrole-3-sulfonamide]
133 nM	COc1nc(NS(=O)(=O)c2c[nH]c(-c3ccccn3)c2)nc(OC)c1CC(F)F [Example 17, N-[5-(2,2-difluoroethyl)-4,6-dimethoxy-pyrimidin-2-yl]-5-(2-pyridyl)-1H-pyrrole-3-sulfonamide]
127 nM	COc1nc(NS(=O)(=O)c2c[nH]c(-c3ccccn3)c2)nc(OC)c1OCCF [Example 27, N-[5-(2-fluoroethoxy)-4,6-dimethoxy-pyrimidin-2-yl]-5-(2-pyridyl)-1H-pyrrole-3-sulfonamide]
107 nM	COc1nc(NS(=O)(=O)c2c[nH]c(-c3ncccc3F)c2)nc(OC)c1CC(F)F [Example 6, N-[5-(2,2-difluoroethyl)-4,6-dimethoxy-pyrimidin-2-yl]-5-(3-fluoro-2-pyridyl)-1H-pyrrole-3-sulfonamide]
99 nM	COc1nc(NS(=O)(=O)c2c[nH]c(-c3ncccc3F)c2)nc(OC)c1OCC(F)F [Example 8, N-[5-(2,2-difluoroethoxy)-4,6-dimethoxy-pyrimidin-2-yl]-5-(3-fluoro-2-pyridyl)-1H-pyrrole-3-sulfonamide]
73 nM	COc1nc(NS(=O)(=O)c2c[nH]c(-c3ccccc3)c2)nc(OC)c1OCCF [Example 3, N-[5-(2-fluoroethoxy)-4,6-dimethoxy-pyrimidin-2-yl]-5-phenyl-1H-pyrrole-3-sulfonamide]
69 nM	COc1nc(NS(=O)(=O)c2c[nH]c(-c3nccs3)c2)nc(OC)c1CCC#N [Example 10, N-[5-(2-cyanoethyl)-4,6-dimethoxy-pyrimidin-2-yl]-5-thiazol-2-yl-1H-pyrrole-3-sulfonamide]
45 nM	COc1nc(NS(=O)(=O)c2c[nH]c(-c3ncccc3F)c2)nc(OC)c1CCC#N [Example 23, N-[5-(2-cyanoethyl)-4,6-dimethoxy-pyrimidin-2-yl]-5-(3-fluoro-2-pyridyl)-1H-pyrrole-3-sulfonamide]
